Measurements as given in patent US20220340899A1, “STEREOSELECTIVE PH RESPONSIVE PEPTIDE DENDRIMERS FOR NUCLEIC ACID TRANSFECTION” (UNIVERSITÄT BERN, priority 2019, published 2022).

Test system: HT-1080, PC-3, MCF-7, SH-SY5Y and Caco-2 cell lines
Experiment: siRNA transfection, GAPDH knock-down in five additional cell lines
Assay type: cell-based
Details: including SH-SY5Y and Caco-2
Procedure: siRNA Transfection and Protein Quantitation: HeLa, CHO, PC3, SH-SY5Y, Caco-2 and MCF-7 cells were seeded in TPP 96-well plates (Faust Laborbedarf AG, Schaffhausen) at 5×10^3 cells per well the day before transfection. The 96-well plates were coated with poly-L-Lysine (Sigma aldrich, Buchs, CH) for 1 h and dried under a flow of air in the fumehood at RT before plating HEK-293 and HT-1080 at 5×10^3 cells per well the day before transfection. Cells were always used in their exponential phase for transfection and with a number of passages between 3 to 20. The siRNA transfection complexes were formed in OptiMEM by mixing siRNA (1-20 μmol, 0.02-0.4 μL from a 50 μM Milli-Q water solution in 6.25 μL OptiMEM) with peptide dendrimers (N/P ratio of 1-100, 21-420 μmol, 0.1-3.5 μl from a 1 mg/mL Milli-Q water solution in 6.25 μL OptiMEM) or L2000 (w/w ratio of 0.5:1-2:1, 0.0665-0.266 μg, 0.0665-0.266 μL from the 1 mg/mL commercial solution in 6.25 μL OptiMEM) at room temperature for 30 minutes (12.5 μL, concentration of 80-1600 nM siRNA and 1.68-33.6 μM i.e. 12-240 μg/mL peptide dendrimers or 5.32-21.28 μg/mL L2000). […] Briefly, medium was removed, cells were lysed with 200 μL cold lysis buffer, 2-10 μL of lysis buffer from each well was taken to a new 96 well plate containing 90 μL Master Mix and fluorescence measured at λex=560 nm and λem=590 nm on a Tecan Infinite M1000 Pro plate reader.

| Substance | GADPH knock-down in five additional cell lines |
| --- | --- |
| (kl)8(kkl)4(kll)2kk(C16)k(C16) [DMH13] | effectively transfected all five cell lines |
| (kl)8(kkl)4(kll)2kllll [DMH18] | effectively transfected all five cell lines |
